The target in the assay is T1, BT3780 (Bacteroides thetaiotaomicron, UniProt Q8A186).
T1 construct: gene BT_3780; signal peptide residues 1-16; residues 17-384 built in crystal (C-terminal Pro printed as 383); monomer
T1 sequence (Q8A186 17-383): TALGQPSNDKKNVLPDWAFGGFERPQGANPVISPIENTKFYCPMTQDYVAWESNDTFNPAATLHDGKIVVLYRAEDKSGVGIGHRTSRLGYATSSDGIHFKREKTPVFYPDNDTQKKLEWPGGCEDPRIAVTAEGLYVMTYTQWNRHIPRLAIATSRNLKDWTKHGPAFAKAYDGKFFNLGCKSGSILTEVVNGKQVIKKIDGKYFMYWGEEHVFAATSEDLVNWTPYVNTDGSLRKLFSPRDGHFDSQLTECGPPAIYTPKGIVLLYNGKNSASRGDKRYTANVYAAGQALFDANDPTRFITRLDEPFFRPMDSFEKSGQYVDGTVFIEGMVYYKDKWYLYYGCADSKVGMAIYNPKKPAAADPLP
The assay is described as follows: X-ray crystal structure, […] Å. Format: binding. Conditions: 0.3 M mannose in crystallisation; bound in -1 and +1 subsites of the active site.

Take `OC[C@H]1OC(O)[C@@H](O)[C@@H](O)[C@@H]1O` (stereo partly shown) [mannose]: the “X-ray crystal structure, 1.35 Å” value is “The pocket houses two mannose residues (the crystal structure of BT3780 was obtained in the presence”.

The values above are taken from paper PMC4599007, “The GH130 Family of Mannoside Phosphorylases Contains Glycoside Hydrolases That Target β-1,2-Mannosidic Linkages in Candida Mannan” (The Journal of Biological Chemistry, 2015).
